Measured values taken from PubChem BioAssay AID2060894 (Molecular Pharmacology Branch, DTP, NCI, 2025).

Tested on: K12877-001-R-J1-PDC complex spheroid viability
Test: Anticancer human tumor K12877-001-R-J1-PDC patient-derived lung adenocarcinoma cell line growth inhibition [RAS]
Conditions: for IC50: curve of first compound; for viability, T/C: stronger effect = lower value
How it was run: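 Multi-cell-type spheroids: tumor cells plus HUVEC endothelial cells and mesenchymal stem cells. RAS-pathway inhibitors were combined with targeted agents, each dosed in half-log steps down from clinical Cmax, or from 10 microM when Cmax was unknown.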
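Further: spheroids exposed to agents for one week before readout.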
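Wherever viability, T/C is given: tumour cells co-cultured with HUVEC and mesenchymal stem cells in spheroids.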

`CC1(C)CCC(Nc2ncc(C(F)(F)F)c(-c3c[nH]c4c(P(C)(C)=O)c(C#N)ccc34)n2)CN1` (centres undefined) + C=CC(=O)N1CCN(c2nc(OCC3CCCN3C)nc3c(F)c(-c4nc(N)cc(C)c4C(F)(F)F)c(Cl)cc23)C(C)C1 showed an IC50 (second compound 0.00316 µM) of 32.5 nM, an IC50 (second compound 0.01 µM) of 76 nM and an IC50 (second compound 0.0316 µM) of 46.6 nM. The IC50 (second compound 0.1 µM) was 38.5 nM, the IC50 (second compound 0.316 µM) was 59 nM and the IC50 (second compound 1 µM) was 98 nM. For the same compound, the viability, T/C (second compound 0.00316 µM, first compound 0.000949 µM) was 107%, the viability, T/C (second compound 0.00316 µM, first compound 0.003 µM) was 85.1% and the viability, T/C (second compound 0.00316 µM, first compound 0.00949 µM) was 74.4%. The viability, T/C (second compound 0.00316 µM, first compound 0.03 µM) was 53.2%, the viability, T/C (second compound 0.00316 µM, first compound 0.0949 µM) was 30.1% and the viability, T/C (second compound 0.00316 µM, first compound 0.3 µM) was 36.3%. It also gave a viability, T/C (second compound 0.01 µM, first compound 0.000949 µM) of 92.3%, a viability, T/C (second compound 0.01 µM, first compound 0.003 µM) of 78.3% and a viability, T/C (second compound 0.01 µM, first compound 0.00949 µM) of 62.5%. The viability, T/C (second compound 0.01 µM, first compound 0.03 µM) was 59.1%, the viability, T/C (second compound 0.01 µM, first compound 0.0949 µM) was 47.4% and the viability, T/C (second compound 0.01 µM, first compound 0.3 µM) was 43.4%. It also gave a viability, T/C (second compound 0.0316 µM, first compound 0.000949 µM) of 87%, a viability, T/C (second compound 0.0316 µM, first compound 0.003 µM) of 73.6% and a viability, T/C (second compound 0.0316 µM, first compound 0.00949 µM) of 63.9%. It also gave a viability, T/C (second compound 0.0316 µM, first compound 0.03 µM) of 57.2%, a viability, T/C (second compound 0.0316 µM, first compound 0.0949 µM) of 42% and a viability, T/C (second compound 0.0316 µM, first compound 0.3 µM) of 33.1%. It also gave a viability, T/C (second compound 0.1 µM, first compound 0.000949 µM) of 80.1%, a viability, T/C (second compound 0.1 µM, first compound 0.003 µM) of 76.8% and a viability, T/C (second compound 0.1 µM, first compound 0.00949 µM) of 63.8%. The viability, T/C (second compound 0.1 µM, first compound 0.03 µM) was 52.6%, the viability, T/C (second compound 0.1 µM, first compound 0.0949 µM) was 41.6% and the viability, T/C (second compound 0.1 µM, first compound 0.3 µM) was 32.9%. The viability, T/C (second compound 0.316 µM, first compound 0.000949 µM) was 87.7%, the viability, T/C (second compound 0.316 µM, first compound 0.003 µM) was 79.6% and the viability, T/C (second compound 0.316 µM, first compound 0.00949 µM) was 66.2%. It also gave a viability, T/C (second compound 0.316 µM, first compound 0.03 µM) of 54.8%, a viability, T/C (second compound 0.316 µM, first compound 0.0949 µM) of 48.1% and a viability, T/C (second compound 0.316 µM, first compound 0.3 µM) of 35.1%. For the same compound, the viability, T/C (second compound 1 µM, first compound 0.000949 µM) was 85.6%, the viability, T/C (second compound 1 µM, first compound 0.003 µM) was 77.6% and the viability, T/C (second compound 1 µM, first compound 0.00949 µM) was 70.5%. It also gave a viability, T/C (second compound 1 µM, first compound 0.03 µM) of 62.8%, a viability, T/C (second compound 1 µM, first compound 0.0949 µM) of 49.7% and a viability, T/C (second compound 1 µM, first compound 0.3 µM) of 38.3%.

`CC1(O)CCCC1n1c(=O)c(C(F)F)cc2cnc(NC3CCN(S(C)(=O)=O)CC3)nc21` (centres undefined) + C=CC(=O)N1CCN(c2nc(OCC3CCCN3C)nc3c(F)c(-c4nc(N)cc(C)c4C(F)(F)F)c(Cl)cc23)C(C)C1 was tested, and the IC50 (second compound 0.00316 µM) was 4030 nM, the IC50 (second compound 0.01 µM) was 1190 nM and the IC50 (second compound 0.0316 µM) was 1640 nM. The IC50 (second compound 0.1 µM) was 1290 nM, the IC50 (second compound 0.316 µM) was 710 nM and the IC50 (second compound 1 µM) was 745 nM. It also gave a viability, T/C (second compound 0.00316 µM, first compound 0.0316 µM) of 105%, a viability, T/C (second compound 0.00316 µM, first compound 0.1 µM) of 79.9% and a viability, T/C (second compound 0.00316 µM, first compound 0.316 µM) of 68.2%. For the same compound, the viability, T/C (second compound 0.00316 µM, first compound 1 µM) was 64%, the viability, T/C (second compound 0.00316 µM, first compound 3.16 µM) was 71.9% and the viability, T/C (second compound 0.00316 µM, first compound 10 µM) was 2.13%. For the same compound, the viability, T/C (second compound 0.01 µM, first compound 0.0316 µM) was 96.1%, the viability, T/C (second compound 0.01 µM, first compound 0.1 µM) was 75.3% and the viability, T/C (second compound 0.01 µM, first compound 0.316 µM) was 49.5%. The viability, T/C (second compound 0.01 µM, first compound 1 µM) was 68.7%, the viability, T/C (second compound 0.01 µM, first compound 3.16 µM) was 34.4% and the viability, T/C (second compound 0.01 µM, first compound 10 µM) was 2.51%. For the same compound, the viability, T/C (second compound 0.0316 µM, first compound 0.0316 µM) was 88.1%, the viability, T/C (second compound 0.0316 µM, first compound 0.1 µM) was 84.9% and the viability, T/C (second compound 0.0316 µM, first compound 0.316 µM) was 56.4%. For the same compound, the viability, T/C (second compound 0.0316 µM, first compound 1 µM) was 63.1%, the viability, T/C (second compound 0.0316 µM, first compound 3.16 µM) was 43.9% and the viability, T/C (second compound 0.0316 µM, first compound 10 µM) was 2.83%. The viability, T/C (second compound 0.1 µM, first compound 0.0316 µM) was 94.5%, the viability, T/C (second compound 0.1 µM, first compound 0.1 µM) was 78.7% and the viability, T/C (second compound 0.1 µM, first compound 0.316 µM) was 59.2%. It also gave a viability, T/C (second compound 0.1 µM, first compound 1 µM) of 53.1%, a viability, T/C (second compound 0.1 µM, first compound 3.16 µM) of 48.4% and a viability, T/C (second compound 0.1 µM, first compound 10 µM) of 2.13%. The viability, T/C (second compound 0.316 µM, first compound 0.0316 µM) was 102%, the viability, T/C (second compound 0.316 µM, first compound 0.1 µM) was 71.1% and the viability, T/C (second compound 0.316 µM, first compound 0.316 µM) was 58.7%. It also gave a viability, T/C (second compound 0.316 µM, first compound 1 µM) of 45.3%, a viability, T/C (second compound 0.316 µM, first compound 3.16 µM) of 41.2% and a viability, T/C (second compound 0.316 µM, first compound 10 µM) of 2.43%. The viability, T/C (second compound 1 µM, first compound 0.0316 µM) was 95%, the viability, T/C (second compound 1 µM, first compound 0.1 µM) was 80.7% and the viability, T/C (second compound 1 µM, first compound 0.316 µM) was 43.7%. The viability, T/C (second compound 1 µM, first compound 1 µM) was 60.7%, the viability, T/C (second compound 1 µM, first compound 3.16 µM) was 42.2% and the viability, T/C (second compound 1 µM, first compound 10 µM) was 2.22%.
